Here are results for three compounds from patent US20260344673A1, “A SOLID FORM FOR PREPARATION OF AN AQUEOUS DISPERSION, AQUEOUS DISPERSION, STABLE CONCENTRATE, COMBINED AQUEOUS DISPERSION, AND USES THEREOF” (priority 2022, published 2026).

Experiment [1] has as its system selected pathogens (fungi). The conditions noted are these: vs commercial fungicide.
For experiment [2], the system named is spring barley. The conditions noted are these: Montana 1981 and 1982; cited from earlier work.
Experiment [3] relates to Cochliobolus sativus. The following applies: Montana 1981 and 1982; cited from earlier work.
Experiment [4] has as its system spring barley. The following applies: compared with uninoculated plots; Montana 1981 and 1982; cited from earlier work.

Take `N#Cc1c[nH]cc1-c1cccc2c1OC(F)(F)O2` [Fludioxonil, fludioxonil]: in experiment [1], the “effectiveness in reducing the development of pathogens (in words)” value is reported as “completely inhibited fungal growth”.

For the compound `OC(c1ccc(F)cc1)(c1cncnc1)c1ccccc1Cl` (centres unmarked) [Nuarimol], the grain yield entry in experiment [2] is listed as “did not increase grain yield”. Also, the “control of common root rot / disease ratings” value in experiment [3] is given as “statistically significant in disease reduction”. Further, the plant emergence result in experiment [4] was “increased emergence”. Consider `C=CCOC(Cn1ccnc1)c1ccc(Cl)cc1Cl` (centres unmarked) [imazalil], for which the plant emergence entry in experiment [4] is reported as “increased emergence”.
